23 compounds from US11261183B2, “Sulfoximine glycosidase inhibitors” (Asceneuron SA, priority 2016, dated 2022) can be followed below.

Data set [1] deals with Human O-GlcNAcase (His-Tagged hOGA) (Homo sapiens (Human), UniProt O60502). Nature of the data set: Human O-GlcNAcase enzyme inhibition assay. In kind it is biochemical. As to conditions: His-Tagged hOGA 20 nM, FL-GlcNAc 10 μM, 60 min, room temperature, pH 6.5; read-out: Enzymatic OGA IC50. The protocol: Example B01: Human O-GlcNAcase enzyme inhibition assay
5 μl of the appropriate concentration of a solution of inhibitor in McIlvaine's Buffer (pH 6.5) in 2% DMSO (for a dose response curve calculation) is added into each well of a 384-well plate (Greiner, 781900). Then, 20 nM of His-Tagged hOGA and 10 μM of FL-GlcNAc (Fluorescein mono-beta-D-(2-deoxy-2-N-acetyl) glucopyranoside; Marker Gene Technologies Inc, M1485) were added to the 384-well plate for a final volume of 20 μl. After incubation for 60 min at room temperature, the reaction was terminated by the addition of 10 μL of stop buffer (200 mM glycine, pH 10.75).

Data set [2] is described as follows: Protein binding in mice plasma using Rapid Equilibrium Dialysis. The settings on record: 37° C.; for fraction unbound at 5 h, 1 µM: male, CD1, mouse, plasma, pH 7.4, CD1 mouse plasma; for % fraction unbound in mouse plasma: CD1 mouse plasma, 5 hours. In kind it is in vitro ADME, CD1 mice. The protocol:
Example B04: Protein binding in mice plasma using Rapid Equilibrium Dialysis
• CD1 Mice Plasma: pooled male, K2-EDTA ([…]2, Bioreclammation, USA • Phosphate Buffered Saline (1×PBS), pH 7.4, 100 mM (Sigma, Cat No. P4417) • RED inserts (Pierce, Cat No. 9006, 8 kDa MWCO) • Sample Analysis: LC-MS/MS Methods • Preparation of DMSO Stock Solution
From 20 mM DMSO stock solutions of reference and test compounds, 1 mM DMSO intermediate working solutions are prepared. From 1 mM intermediate working solutions, 100 μM DMSO working solutions are prepared. • Sample Preparation Procedure:
Selected plasma is brought from −20° C. to 37° C. using water bath before its use. Test solution is prepared by adding the DMSO working solution of the reference or test compound (2 μL; 100 μM) to the selected plasma (198 μL). Spiked plasma (200 μl) is transferred to sample compartment of RED insert placed in the teflon plate. 350 μl of 1×PBS is added in the buffer compartment of RED insert. The teflon plate is covered with sealing mat and agitated at 37° C. for 5 hours at 500 RPM in a Thermomixer. After incubation time, an aliquot of plasma (50 μl) from sample compartment is mixed with blank 1×PBS (50 μl). Similarly, an aliquot of buffer (50 μl) from buffer compartment is mixed with blank plasma (50 μl). Quenching solution (200 μL, acetonitrile containing internal standard tolbutamide (0.5 μg/mL)) is added and the resulting solutions are mixed using a vortex mixer and centrifuged (Eppendorf 5415, 13792 g). Supernatants are analyzed using a Mass Spectrometer. The sample (supernatant fraction, 5 μL) is injected into the LC-MS/MS instrument. • Chromatographic Conditions: LC-MS/MS: API 4000 LC-MS/MS Software: Analyst Version 1.6.1 Column Phenomenex Synergy 30*4.6*5μ Column Oven: 40° C. Mode: ESI Positive Injection volume: 5 μl Flow Rate: […] Buffer: 0.1% Formic acid in Water Method: Isocratic Method/Gradient Composition: A) 0.1% Formic acid in Water B) 0.1% Formic acid in Methanol
After the concentration of free drug and total drug has been determined by LCMS/MS, percent plasma protein binding can be calculated as follows:
[formula] Following this protocol, % fraction unbound in plasma from different species can be also measured.

A value given as a limit tells only on which side of the number the result lay.

Human O-GlcNAcase (His-Tagged hOGA), sequence (O60502 whole entry): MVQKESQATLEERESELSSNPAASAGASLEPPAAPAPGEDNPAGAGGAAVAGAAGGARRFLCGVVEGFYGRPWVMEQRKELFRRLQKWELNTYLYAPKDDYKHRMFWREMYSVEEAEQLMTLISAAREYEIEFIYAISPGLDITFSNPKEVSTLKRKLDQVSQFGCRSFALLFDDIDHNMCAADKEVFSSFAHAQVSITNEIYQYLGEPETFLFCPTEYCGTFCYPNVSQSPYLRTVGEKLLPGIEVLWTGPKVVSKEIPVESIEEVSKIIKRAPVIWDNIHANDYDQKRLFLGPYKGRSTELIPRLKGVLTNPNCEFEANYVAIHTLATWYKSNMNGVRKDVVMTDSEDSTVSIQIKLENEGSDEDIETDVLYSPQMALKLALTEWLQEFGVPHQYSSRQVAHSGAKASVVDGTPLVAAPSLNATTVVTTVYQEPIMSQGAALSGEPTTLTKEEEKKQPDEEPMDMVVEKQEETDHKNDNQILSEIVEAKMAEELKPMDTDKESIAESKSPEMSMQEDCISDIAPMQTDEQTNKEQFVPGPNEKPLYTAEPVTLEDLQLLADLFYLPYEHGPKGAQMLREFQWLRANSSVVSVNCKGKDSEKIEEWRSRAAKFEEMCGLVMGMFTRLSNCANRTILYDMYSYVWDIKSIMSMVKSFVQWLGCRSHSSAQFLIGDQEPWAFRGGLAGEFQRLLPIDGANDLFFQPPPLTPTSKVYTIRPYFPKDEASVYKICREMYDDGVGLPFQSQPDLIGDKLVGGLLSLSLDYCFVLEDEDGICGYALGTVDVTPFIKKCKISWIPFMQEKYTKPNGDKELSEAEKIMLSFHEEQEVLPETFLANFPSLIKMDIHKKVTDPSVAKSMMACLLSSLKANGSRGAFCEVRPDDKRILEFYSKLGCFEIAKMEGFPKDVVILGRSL

In the case of `CCS(=N)(=O)c1cnc(N2CCN(C(C)c3ccc4c(c3)OCC4)CC2)nc1` (racemic) [Example 3, (2-(4-(1-(2,3-dihydrobenzofuran-6-yl)ethyl)piperazin-1-yl)pyrimidin-5-yl)(ethyl)(imino)-λ^6-sulfanone], the half-maximal inhibitory concentration (IC50) in data set [1] is under 50 nM. For the same compound, the fraction unbound at 5 h, 1 µM in data set [2] came out at 0.25.
Regarding `CC(c1ccc2scnc2c1)N1CCN(c2ncc(S(C)(=N)=O)cn2)CC1` (single isomer, unassigned) [Example 36], the IC50 in data set [1] is under 50 nM. The “% fraction unbound in mouse plasma” value in data set [2] amounted to 45.51%.
`Cc1nc2cc(C(C)N3CCN(c4ncc(S(C)(=N)=O)cn4)CC3)ccc2o1` (racemic) [Example 55, imino(methyl)(2-(4-(1-(2-methylbenzo[d]oxazol-5-yl)ethyl)piperazin-1-yl)pyrimidin-5-yl)-λ^6-sulfanone]: the IC50 in data set [1] is 50 to 200 nM. In addition, in data set [2], the fraction unbound at 5 h, 1 µM came to 0.39.
For `CC(c1ccc2scnc2c1)N1CCN(c2ccc(S(C)(=N)=O)cc2)CC1` (racemic) [Example 33, (4-(4-(1-(benzo[d]thiazol-5-yl)ethyl)piperazin-1-yl)phenyl)(imino)(methyl)-λ^6-sulfanone], the 50% inhibitory concentration (IC50) in data set [1] was 50 to 200 nM. For the same compound, the fraction unbound at 5 h, 1 µM in data set [2] is 0.132.
Taken in the same sequence, the figures for `CN=S(C)(=O)c1cnc(N2CCN(C(C)c3ccc4c(c3)OCC4)CC2)nc1` (racemic) [Example 8, (2-(4-(1-(2,3-dihydrobenzofuran-6-yl)ethyl)piperazin-1-yl)pyrimidin-5-yl)(methyl)(methylimino)-λ^6-sulfanone] were under 50 nM and 0.234.
Turning to `CC(c1ccc2scnc2c1)N1CCN(c2ncc(C(=O)N=S(C)(C)=O)cn2)CC1` (racemic) [Example 32, 2-(4-(1-(benzo[d]thiazol-5-yl)ethyl)piperazin-1-yl)-N-(dimethyl(oxo)-λ^6-sulfanylidene)pyrimidine-5-carboxamide], the IC50 in data set [1] was under 50 nM. Moreover, in data set [2], the fraction unbound at 5 h, 1 µM is 0.0535.
The like results for `Cc1nc2cc(C(C)N3CCN(c4ccc(S(C)(=N)=O)cn4)CC3)ccc2s1` (racemic) [Example 46, imino(methyl)(6-(4-(1-(2-methylbenzo[d]thiazol-5-yl)ethyl)piperazin-1-yl)pyridin-3-yl)-λ^6-sulfanone] were, in that order, under 50 nM and 0.115.
The like results for `CCS(=N)(=O)c1ccc(N2CCN(C(C)c3ccc4c(c3)OCC4)CC2)nc1` (racemic) [Example 6, (6-(4-(1-(2,3-dihydrobenzofuran-6-yl)ethyl)piperazin-1-yl)pyridin-3-yl)(ethyl)(imino)-λ^6-sulfanone] were, in that order, under 50 nM and 0.261.
The like results for `CCCS(=N)(=O)c1cnc(N2CCN(C(C)c3ccc4c(c3)OCC4)CC2)nc1` (racemic) [Example 4, (2-(4-(1-(2,3-dihydrobenzofuran-6-yl)ethyl)piperazin-1-yl)pyrimidin-5-yl)(imino)(propyl)-λ^6-sulfanone] were, in that order, under 50 nM and 0.142.
Regarding `CN=S(C)(=O)c1cnc(N2CCN(C(C)c3ccc4scnc4c3)CC2)nc1` (single isomer, unassigned) [Example 37], the IC50 in data set [1] is under 50 nM. The fraction unbound at 5 h, 1 µM in data set [2] was found to be 0.278.
Turning to `CC(c1ccc2scnc2c1)N1CCN(c2ncc(S(C)(=N)=O)cn2)CC1` (single isomer, unassigned) [Example 35], the IC50 in data set [1] is under 50 nM. For the same compound, the “% fraction unbound in mouse plasma” value in data set [2] is 33.7%.
With `CC(c1ccc2c(c1)OCC2)N1CCN(c2ccc(S(C)(=N)=O)cc2)CC1` (racemic) [Example 11, (4-(4-(1-(2,3-dihydrobenzofuran-6-yl)ethyl)piperazin-1-yl)phenyl)(imino)(methyl)-λ^6-sulfanone], the IC50 in data set [1] was under 50 nM. For the same compound, the fraction unbound at 5 h, 1 µM in data set [2] turned out to be 0.21.
For `CC(c1ccc2scnc2c1)N1CCN(c2ccc(S(C)(=N)=O)cn2)CC1` (racemic) [Example 26, (6-(4-(1-(benzo[d]thiazol-5-yl)ethyl)piperazin-1-yl)pyridin-3-yl)(imino)(methyl)-λ^6-sulfanone], in data set [1], the IC50 was under 50 nM. Also, the fraction unbound at 5 h, 1 µM in data set [2] was 0.18.
Taken in the same sequence, the figures for `CC(c1ccc2c(c1)OCC2)N1CCN(c2ncc(N=S(C)(C)=O)cn2)CC1` (racemic) [Example 9] were under 50 nM and 0.376.
Turning to `CN=S(C)(=O)c1ccc(N2CCN(C(C)c3ccc4c(c3)OCC4)CC2)nc1` (single isomer, unassigned) [Example 20, (6-(4-((S)-1-(2,3-dihydrobenzofuran-6-yl)ethyl)piperazin-1-yl)pyridin-3-yl)(methyl)(methylimino)-λ^6-sulfanone or (6-(4-((R)-1-(2,3-dihydrobenzofuran-6-yl)ethyl)piperazin-1-yl)pyridin-3-yl)(methyl)(methylimino)-λ^6-sulfanone], the IC50 in data set [1] was under 50 nM. The fraction unbound at 5 h, 1 µM in data set [2] came to 0.223.
Taken in the same sequence, the figures for `Cc1nc2cc(C(C)N3CCN(c4ncc(S(C)(=N)=O)cn4)CC3)ccc2s1` (single isomer, unassigned) [Example 51] were under 50 nM and 0.0838.
The like results for `CC(c1ccc2scnc2c1)N1CCN(c2ncc3c(n2)CCS(=N)(=O)C3)CC1` (racemic) [Example 59, 2-(4-(1-(benzo[d]thiazol-5-yl)ethyl)piperazin-1-yl)-6-imino-5,6,7,8-tetrahydro-6λ^4-thiopyrano[4,3-d]pyrimidine 6-oxide] were, in that order, under 50 nM and 0.0848.
Taken in the same sequence, the figures for `CCN=S(C)(=O)c1cnc(N2CCN(C(C)c3ccc4sc(C)nc4c3)CC2)nc1` (racemic) [Example 48, (ethylimino)(methyl)(2-(4-(1-(2-methylbenzo[d]thiazol-5-yl)ethyl)piperazin-1-yl)pyrimidin-5-yl)-λ^6-sulfanone] were under 50 nM and 0.0534.
With `CN=S(C)(=O)c1cnc(N2CCN(C(C)c3ccc4sc(C)nc4c3)CC2)nc1` (racemic) [Example 45, methyl(2-(4-(1-(2-methylbenzo[d]thiazol-5-yl)ethyl)piperazin-1-yl)pyrimidin-5-yl)(methylimino)-λ^6-sulfanone], the IC50 in data set [1] was under 50 nM. Moreover, in data set [2], the fraction unbound at 5 h, 1 µM came to 0.214.
With `Cc1nc2cc(C(C)N3CCN(c4ncc(S(C)(=O)=NC(C)C)cn4)CC3)ccc2s1` (racemic) [Example 49, (isopropylimino)(methyl)(2-(4-(1-(2-methylbenzo[d]thiazol-5-yl)ethyl)piperazin-1-yl)pyrimidin-5-yl)-λ^6-sulfanone], the IC50 in data set [1] was 50 to 200 nM. Moreover, the fraction unbound at 5 h, 1 µM in data set [2] was determined as 0.0545.
Taken in the same sequence, the figures for `CC(c1ccc2scnc2c1)N1CCN(c2ncc(N=S(C)(C)=O)cn2)CC1` (racemic) [Example 31, ((2-(4-(1-(benzo[d]thiazol-5-yl)ethyl)piperazin-1-yl)pyrimidin-5-yl)imino)dimethyl-λ^6-sulfanone] were under 50 nM and 0.229.
The like results for `CC(c1ccc2scnc2c1)N1CCN(c2ncc(S(C)(=N)=O)cn2)CC1` (single isomer, unassigned) [Example 34, (2-(4-((S)-1-(benzo[d]thiazol-5-yl)ethyl)piperazin-1-yl)pyrimidin-5-yl)(imino)(methyl)-λ^6-sulfanone or (2-(4-((R)-1-(benzo[d]thiazol-5-yl)ethyl)piperazin-1-yl)pyrimidin-5-yl)(imino)(methyl)-λ^6-sulfanone] were, in that order, under 50 nM and 0.257.
Take `CC(c1ccc2scnc2c1)N1CCN(c2ncc(S(C)(=N)=O)cn2)CC1` (racemic) [Example 22, (2-(4-(1-(benzo[d]thiazol-5-yl)ethyl)piperazin-1-yl)pyrimidin-5-yl)(imino)(methyl)-λ^6-sulfanone]: in data set [1], the IC50 is under 50 nM. Besides, the fraction unbound at 5 h, 1 µM in data set [2] was 0.248.
